Data from patent publication US10143727B2, “Method using an Y1 receptor activator for treating an anticancer agent-induced nephrotoxic injury” (KYUNGPOOK NATIONAL UNIVERSITY INDUSTRY-ACADEMIC COOPERATION …, priority 2016, dated 2018).

Columns and labels:
[1] = test system: p53-dependent apoptosis pathway; format: in vivo; conditions: renal tissues of cisplatin-treated mice; 50 ug per kg i.p. daily for 3 days
Protocol: (§1) Six- to eight-weeks old male or female C57BL/6 mice were purchased from the Jackson laboratory. A block randomization method was used to divide these animals into experimental groups. In order to eliminate bias, investigators were blinded during data collection and analysis. The mice were housed under a 12 hour day-night cycle. They were provided with free access to water and food pellets. This animal study was approved by the Kyungpook National University Institutional Animal Care and Use Committee.
(§2) Three days later, kidneys were collected and analyzed.
Samples were immunoblotted as previously described (See Santos-Carvalho A et al., Cell Death Dis 4, e636, 2013). Primary antibodies against the following proteins were used: P53(mouse, 1: 1000, Cell Signaling Technologies, 2524), Bax (rabbit, 1: 1000, Cell Signaling Technologies, 2772), Bcl2 (rabbit, 1: 1000, Cell Signaling Technologies, 5114S), and β-actin (1: 1000, Santa Cruz, SC-1615). Densitometric quantification was performed using Image J software (US National Institutes of Health).
Real time RT-PCR was performed as previously described (See Hu L et al., BMB Rep 48, 583-588, 2015). […] Quantitative real-time PCR was performed using Corbett research RG-6000 real-time PCR instrument. […]

[2] = test system: cisplatin-induced renal injury; test: Creatinine and BUN assays in cisplatin-induced renal injury; format: in vivo, C57BL/6 mice; conditions: cisplatin 15 mg per kg mice; test peptide 50 ug per kg i.p. daily for 3 days; vs cisplatin-treated mice
Protocol: as §1, §2
To monitor renal function, plasma levels of BUN and creatinine were determined using commercially available kits as described previously (See Pabla N et al., J Clin Invest 121, 2709-2722, 2011).

[3] = test system: cisplatin-induced apoptosis in the kidney; test: TUNEL assay of renal apoptosis; format: in vivo, C57BL/6 mice; conditions: cisplatin 15 mg per kg mice; 50 ug per kg i.p. daily for 3 days
Protocol: as §1, §2
(§3) Formaldehyde-fixed kidneys were dehydrated using graded alcohol series and paraffinized. Paraffin sections of 5 μm were stained with hematoxylin and eosin (H&E). Each parameter was determined for at least 6 different animals. TUNEL assays were performed using In Situ Cell Detection Kit, Fluorescein (Roche Diagnostic) according to the manufacturer's instructions. A pathologist quantified kidney damage in a double blinded manner using renal damage score, as previously described (See Jiang M et al., Am J Physiol Renal Physiol 287, F1140-1147, 2004). Briefly, tissues were stained with H&E. The degree of morphological involvement in renal dysfunction was determined using light microscopy.

[4] = test system: cisplatin-induced renal injury; test: Histology (H&E staining) and morphological assessment of renal tissues; format: in vivo, C57BL/6 mice
Protocol: as §1, §2, §3
Each parameter was determined for at least five different animals.

Molecule	Expression levels of p53 and pro-apoptotic genes such as Bax, Noxa, and Puma [1]	Plasma concentration of blood urea nitrogen (BUN) [2]	Plasma concentration of creatinine [2]	Apoptotic cells in the kidney (TUNEL assay) [3]	Cisplatin-induced increase in apoptotic tubular cells in the renal cortex (H&E) ([4]; cisplatin 15 mg per kg mice, 50 ug per kg i.p. daily for 3 days)	Apoptotic tubular cells in the renal cortex (H&E) ([4]; cisplatin 15 mg per kg alone)	Renal injury (H&E, tubular damage) ([4]; cisplatin 15 mg per kg mice, 50 ug per kg i.p. daily for 3 days, FIG. 3d)
Neuropeptide Y [Neuropeptide Y (NPY)]	decreased	decreased	decreased	decrease	diminished		
N.N.[Cl][Pt][Cl] [cisplatin, Cisplatin, reference compound]						increase	
[Leu31Pro34]NPY [Y1 agonist]	suppressed	reduced	reduced	decreased			significantly reduced
